# Measured values as given in patent US20180343857A1, “BIOSOLUBILIZER” (SOLIANCE, priority 2012, published 2018).
# Structures can show the parent of a compound that is named as a salt.
# System: Avena Fatua
# Assay: Biological effectiveness of glyphosate with extemporaneous adjuvant (biomass reduction curves)
# Format: in vivo
# Conditions: Avena Fatua in pots; glyphosate 50 to 650 g equivalent acid per hectare; dry biomass 3 weeks after treatment; R = 1 for herbicide without adjuvant
# From the text: The preparation of example 2.4 containing terpenic alcohols solubilised by sophorolipids is used as an extemporaneous adjuvant of glyphosate. Glyphosate is a non-selective herbicide, the definition and use of which are described in particular in “The biochemistry and uses of pesticides, 2nd edition” by Kenneth A. Hassall published by VCH (1990). An extemporaneous adjuvant is a preparation added to the phytosanitary preparation at the moment of application and is used to reinforce the action of the latter.
# The glyphosate used is a solution of glyphosate in the form of isopropylamine salt titrated to 620 g/l equivalent glyphosate acid.
# The effectiveness of the preparation according to the invention is assessed by forming curves of biological effectiveness, that is by determining the ability of the preparations to reduce the biomass of a target plant as a function of the concentration of herbicide. […]
# where Y is the dry biomass of the plant (plant cut at the base and dried 24 h at 110° C. in a ventilated heat chamber), X is the concentration of herbicide expressed in grams of glyphosate acid per hectare. C, D, a and b being factors determined by analysing the curve according to the least squares method. […] Its value is determined by applying the above equation with the parameters D, C, a and b of the curve of the herbicide without adjuvant (R=1) according to the least squares method. […]
smiles,measurement,value
"O=C(O)CNCP(=O)(O)O [Glyphosate (iso-propylamine salt), Glyphosate]",R (factor of effectiveness),1
